Numbered stars: 1 amine (or outer) side, 2 acyl side, 3 side chain; on linkers, the order of the positions; unused ones are H or OH. Square brackets hold non-standard residues; d marks the D form. Side chains are listed from the residue outwards. Peptide text beside a SMILES is read from it. * marks the point of attachment. γGlu = O=C(O)[C@H](CCC(=O)[*:2])N[*:1]; Palmitoyl = CCCCCCCCCCCCCCCC(=O)*; Aib = CC(C)(N)C(=O)O

One series in a line: Stability on incubation with mouse plasma for 8 h (RP-HPLC peak height). In kind it is in vitro ADME. The following applies: mouse plasma, 8 h, peak height vs time = 0 h; read-out: Percentage of degradation after 8h.
Description: The samples were then separated on RP-HPLC and the peak height compared to the value at time=0 hours.
As to `CC[C@H](C)[C@H](NC(=O)[C@H](Cc1ccccc1)NC(=O)[C@@H](NC(=O)CNC(=O)[C@H](CCC(=O)O)NC(=O)[C@@H](C)NC(=O)[C@@H](N)Cc1c[nH]cn1)[C@@H](C)O)C(=O)N[C@@H](CO)C(=O)N[C@@H](CC(=O)O)C(=O)N[C@@H](Cc1ccc(O)cc1)C(=O)N[C@@H](CO)C(=O)N[C@@H](CCCCN)C(=O)N[C@@H](Cc1ccc(O)cc1)C(=O)N[C@@H](CCSC)C(=O)N[C@@H](CC(=O)O)C(=O)N[C@@H](CC(N)=O)C(=O)N[C@@H](CCCNC(=N)N)C(=O)N[C@@H](CCCNC(=N)N)C(=O)N[C@@H](C)C(=O)N[C@@H](CCCCN)C(=O)N[C@@H](CC(=O)O)C(=O)N[C@@H](Cc1ccccc1)C(=O)N[C@H](C(=O)N[C@@H](CCC(N)=O)C(=O)N[C@@H](Cc1c[nH]c2ccccc12)C(=O)N[C@@H](CC(C)C)C(=O)N[C@@H](CCSC)C(=O)N[C@@H](CC(N)=O)C(=O)N[C@H](C(=O)O)[C@@H](C)O)C(C)C` [(D-A^2 I^7) dogfish glucagon, (D-A^2I^7) dogfish glucagon] (H-H[dA]EGTFISDYSKYMDNRRAKDFVQWLMNT-OH; N-terminus and C-terminus assumed), the metabolised at 8 h is 33%.

Staying with this series, now noted: mouse, plasma.
`CSCC[C@H](NC(=O)[C@H](Cc1ccc(O)cc1)NC(=O)[C@H](CCCCN)NC(=O)[C@H](CO)NC(=O)[C@H](Cc1ccc(O)cc1)NC(=O)[C@H](CC(=O)O)NC(=O)[C@H](CO)NC(=O)[C@@H](NC(=O)[C@H](Cc1ccccc1)NC(=O)[C@@H](NC(=O)CNC(=O)[C@H](CCC(=O)O)NC(=O)[C@H](CO)NC(=O)[C@@H](N)Cc1c[nH]cn1)[C@@H](C)O)[C@@H](C)O)C(=O)N[C@@H](CC(=O)O)C(=O)N[C@@H](CC(N)=O)C(=O)N[C@@H](CCCNC(=N)N)C(=O)N[C@@H](CCCNC(=N)N)C(=O)N[C@@H](C)C(=O)N[C@@H](CCCCN)C(=O)N[C@@H](CC(=O)O)C(=O)N[C@@H](Cc1ccccc1)C(=O)N[C@H](C(=O)N[C@@H](CCC(N)=O)C(=O)N[C@@H](Cc1c[nH]c2ccccc12)C(=O)N[C@@H](CC(C)C)C(=O)N[C@@H](CCSC)C(=O)N[C@@H](CC(N)=O)C(=O)N[C@H](C(=O)O)[C@@H](C)O)C(C)C` [dogfish glucagon, Dogfish glucagon (1-29)] (H-HSEGTFTSDYSKYMDNRRAKDFVQWLMNT-OH; N-terminus and C-terminus assumed) gave a metabolised at 8 h of 38.8%.

Turning to `CSCC[C@H](NC(=O)[C@H](C)NC(=O)[C@H](CCCCN)NC(=O)[C@H](CO)NC(=O)[C@H](Cc1ccc(O)cc1)NC(=O)[C@H](CC(=O)O)NC(=O)[C@H](CO)NC(=O)[C@@H](NC(=O)[C@H](Cc1ccccc1)NC(=O)[C@@H](NC(=O)CNC(=O)[C@H](CCC(=O)O)NC(=O)[C@@H](C)NC(=O)[C@@H](N)Cc1c[nH]cn1)[C@@H](C)O)[C@@H](C)O)C(=O)N[C@@H](CC(=O)O)C(=O)N[C@@H](CC(N)=O)C(=O)N[C@@H](CCCNC(=N)N)C(=O)N[C@@H](CCCNC(=N)N)C(=O)N[C@@H](C)C(=O)N[C@@H](CCCCN)C(=O)N[C@@H](CC(=O)O)C(=O)N[C@@H](Cc1ccccc1)C(=O)N[C@H](C(=O)N[C@@H](CCC(N)=O)C(=O)N[C@@H](Cc1c[nH]c2ccccc12)C(=O)N[C@@H](CC(C)C)C(=O)N[C@@H](CCSC)C(=O)N[C@@H](CC(N)=O)C(=O)N[C@H](C(=O)O)[C@@H](C)O)C(C)C` [(D-A^2 A^13) dogfish glucagon, (D-A^2A^13) dogfish glucagon] (H-H[dA]EGTFTSDYSKAMDNRRAKDFVQWLMNT-OH; N-terminus and C-terminus assumed), the metabolised at 8 h worked out at 33.9%.

With `CCCCCCCCCCCCCCCC(=O)N[C@@H](CCC(=O)NCCCC[C@H](NC(=O)[C@@H](NC(=O)[C@H](CC(N)=O)NC(=O)[C@H](CCSC)NC(=O)[C@H](CC(C)C)NC(=O)[C@H](Cc1c[nH]c2ccccc12)NC(=O)[C@H](CCC(N)=O)NC(=O)[C@@H](NC(=O)[C@H](Cc1ccccc1)NC(=O)[C@H](CC(=O)O)NC(=O)[C@H](CCCCN)NC(=O)[C@H](C)NC(=O)[C@H](CCCNC(=N)N)NC(=O)[C@H](CCCNC(=N)N)NC(=O)[C@H](CC(N)=O)NC(=O)[C@H](CC(=O)O)NC(=O)[C@H](CCSC)NC(=O)[C@H](Cc1ccc(O)cc1)NC(=O)[C@H](CCCCN)NC(=O)[C@H](CO)NC(=O)[C@H](Cc1ccc(O)cc1)NC(=O)[C@H](CC(=O)O)NC(=O)[C@H](CO)NC(=O)[C@@H](NC(=O)[C@H](Cc1ccccc1)NC(=O)[C@@H](NC(=O)CNC(=O)[C@H](CCC(=O)O)NC(=O)[C@@H](C)NC(=O)[C@@H](N)Cc1c[nH]cn1)[C@@H](C)O)[C@@H](C)O)C(C)C)[C@@H](C)O)C(=O)O)C(=O)O` [(D-A^2) dogfish glucagon Lys^30-γ-Glutamyl-PAL] (H-H[dA]EGTFTSDYSKYMDNRRAKDFVQWLMNTK([γGlu-Palmitoyl])-OH; N-terminus and C-terminus assumed), the metabolised at 8 h stood at 11.6%.

Compound `CSCC[C@H](NC(=O)[C@H](CC(C)C)NC(=O)[C@H](Cc1c[nH]c2ccccc12)NC(=O)[C@H](CCC(N)=O)NC(=O)[C@@H](NC(=O)[C@H](Cc1ccccc1)NC(=O)[C@H](CC(=O)O)NC(=O)[C@H](CCCCN)NC(=O)[C@H](C)NC(=O)[C@H](CCCNC(=N)N)NC(=O)[C@H](CCCNC(=N)N)NC(=O)[C@H](CC(N)=O)NC(=O)[C@H](CC(=O)O)NC(=O)[C@H](CCSC)NC(=O)[C@@H](Cc1ccc(O)cc1)NC(=O)[C@H](CCCCN)NC(=O)[C@H](CO)NC(=O)[C@H](Cc1ccc(O)cc1)NC(=O)[C@H](CC(=O)O)NC(=O)[C@H](CO)NC(=O)[C@@H](NC(=O)[C@H](Cc1ccccc1)NC(=O)[C@@H](NC(=O)CNC(=O)[C@H](CCC(=O)O)NC(=O)[C@@H](C)NC(=O)[C@@H](N)Cc1c[nH]cn1)[C@@H](C)O)[C@@H](C)O)C(C)C)C(=O)N[C@@H](CC(N)=O)C(=O)N[C@H](C(=O)O)[C@@H](C)O` [(D-A^2 D-Y^13) dogfish glucagon, (D-A^2D-Y^13) dogfish glucagon] (H-H[dA]EGTFTSDYSK[dY]MDNRRAKDFVQWLMNT-OH; N-terminus and C-terminus assumed) had a metabolised at 8 h of 26.5%.

For `CC[C@H](C)[C@H](NC(=O)[C@H](CO)NC(=O)[C@H](Cc1ccc(O)cc1)NC(=O)[C@H](CC(=O)O)NC(=O)[C@H](CO)NC(=O)[C@@H](NC(=O)[C@H](Cc1ccccc1)NC(=O)[C@@H](NC(=O)CNC(=O)[C@H](CCC(=O)O)NC(=O)[C@@H](C)NC(=O)[C@@H](N)Cc1c[nH]cn1)[C@@H](C)O)[C@@H](C)O)C(=O)N[C@@H](Cc1ccc(O)cc1)C(=O)N[C@@H](CCSC)C(=O)N[C@@H](CC(=O)O)C(=O)N[C@@H](CC(N)=O)C(=O)N[C@@H](CCCNC(=N)N)C(=O)N[C@@H](CCCNC(=N)N)C(=O)N[C@@H](C)C(=O)N[C@@H](CCCCN)C(=O)N[C@@H](CC(=O)O)C(=O)N[C@@H](Cc1ccccc1)C(=O)N[C@H](C(=O)N[C@@H](CCC(N)=O)C(=O)N[C@@H](Cc1c[nH]c2ccccc12)C(=O)N[C@@H](CC(C)C)C(=O)N[C@@H](CCSC)C(=O)N[C@@H](CC(N)=O)C(=O)N[C@H](C(=O)O)[C@@H](C)O)C(C)C` [(D-A^2 I^12) dogfish glucagon, (D-A^2I^12) dogfish glucagon] (H-H[dA]EGTFTSDYSIYMDNRRAKDFVQWLMNT-OH; N-terminus and C-terminus assumed), the metabolised at 8 h is 20.7%.

Compound `CSCC[C@H](NC(=O)[C@H](Cc1ccc(O)cc1)NC(=O)[C@H](CCCCN)NC(=O)[C@H](CO)NC(=O)[C@H](Cc1ccc(O)cc1)NC(=O)[C@H](CC(=O)O)NC(=O)[C@H](CO)NC(=O)[C@@H](NC(=O)[C@H](Cc1ccccc1)NC(=O)[C@@H](NC(=O)CNC(=O)[C@H](CCC(=O)O)NC(=O)C(C)(C)NC(=O)[C@@H](N)Cc1c[nH]cn1)[C@@H](C)O)[C@@H](C)O)C(=O)N[C@@H](CC(=O)O)C(=O)N[C@@H](CC(N)=O)C(=O)N[C@@H](CCCNC(=N)N)C(=O)N[C@@H](CCCNC(=N)N)C(=O)N[C@@H](C)C(=O)N[C@@H](CCCCN)C(=O)N[C@@H](CC(=O)O)C(=O)N[C@@H](Cc1ccccc1)C(=O)N[C@H](C(=O)N[C@@H](CCC(N)=O)C(=O)N[C@@H](Cc1c[nH]c2ccccc12)C(=O)N[C@@H](CC(C)C)C(=O)N[C@@H](CCSC)C(=O)N[C@@H](CC(N)=O)C(=O)N[C@H](C(=O)O)[C@@H](C)O)C(C)C` [(Aib^2) dogfish glucagon] (H-H[Aib]EGTFTSDYSKYMDNRRAKDFVQWLMNT-OH; N-terminus and C-terminus assumed) had a metabolised at 8 h of 47.4%.

With `CSCC[C@H](NC(=O)[C@H](Cc1ccc(O)cc1)NC(=O)[C@H](CCCCN)NC(=O)[C@H](CO)NC(=O)[C@H](Cc1ccc(O)cc1)NC(=O)[C@H](CC(=O)O)NC(=O)[C@H](CO)NC(=O)[C@@H](NC(=O)[C@H](Cc1ccccc1)NC(=O)[C@@H](NC(=O)CNC(=O)[C@H](CCC(=O)O)NC(=O)[C@@H](C)NC(=O)[C@@H](N)Cc1c[nH]cn1)[C@@H](C)O)[C@@H](C)O)C(=O)N[C@@H](CC(=O)O)C(=O)N[C@@H](CC(N)=O)C(=O)N[C@@H](CCCNC(=N)N)C(=O)N[C@@H](CCCNC(=N)N)C(=O)N[C@@H](C)C(=O)N[C@@H](CCCCN)C(=O)N[C@@H](CC(=O)O)C(=O)N[C@@H](Cc1ccccc1)C(=O)N[C@H](C(=O)N[C@@H](CCC(N)=O)C(=O)N[C@@H](Cc1c[nH]c2ccccc12)C(=O)N[C@@H](CC(C)C)C(=O)N[C@@H](CCSC)C(=O)N[C@@H](CC(N)=O)C(=O)N[C@H](C(=O)N1CCC[C@H]1C(=O)N[C@@H](CO)C(=O)N[C@@H](CO)C(=O)NCC(=O)N[C@@H](C)C(=O)N1CCC[C@H]1C(=O)N1CCC[C@H]1C(=O)N1CCC[C@H]1C(=O)N[C@@H](CO)C(N)=O)[C@@H](C)O)C(C)C` [(D-A^2) dogfish glucagon exendin, (D-A^2) dogfish glucagon exendin end] (H-H[dA]EGTFTSDYSKYMDNRRAKDFVQWLMNTPSSGAPPPS-NH2; N-terminus assumed), the metabolised at 8 h stood at 18.3%.

The values above are taken from patent US20150197550A1 (UNIVERSITY OF ULSTER, priority 2012, published 2015).
